The values that follow come from paper PMC7031696 (Cell chemical biology, 2019).

“Also recorded” adds a separate entry of the source. Read-outs that look alike come from different tables or passages of the source.

Data set [1] deals with asynchronous 3D7-A10 parasite cultures. The experiment in a line: Standard 72-h exposure asexual blood stage susceptibility assay (IC50^72h). Format: cell-based, Plasmodium falciparum. Conditions: read-out: Overall (72hr assay) Mean IC50 (IC50^72h); 72-h exposure, asynchronous 3D7-A10.
Data set [2] deals with Plasmodium falciparum 3D7-A10 parasites. Briefly: Stage specificity assay (8-h exposure of synchronized stages, IC50^8h). Type of data set: cell-based. Conditions: for Ratio lowest IC50 8hr/IC50 72hr: 3D7-A10; for Stage of peak activity (Figure 6): period when the parasite was most susceptible (lowest IC50^8h).
Data set [3] in a line: Solubility Assay (UV/vis spectroscopy, filter method). The note with it: 1 × PBS pH 7.4, 500 μM, UV/vis 280–360 nm minus 800 nm.
For data set [4], the system named is synchronized Plasmodium falciparum parasites. Briefly: Microscopical study of cell morphology after 8-h exposures (Figure S4). Format: cell-based. Conditions: 3× the IC50^8h of the most sensitive life stage, 8-h intervals.
Setting [5] is: read-out: Early trophozoites Mean IC50 (IC50^8h), 8-h exposure 16–24 hr, 3D7-A10, survival at 60 h.
Setting [6] is: read-out: Late trophozoites Mean IC50 (IC50^8h), 8-h exposure 24–32 hr, 3D7-A10, survival at 60 h.
[7] abbreviates: read-out: Schizonts Mean IC50 (IC50^8h), 8-h exposure 32–40 hr, 3D7-A10, survival at 60 h.
Setting [8] is: read-out: Early rings Mean IC50 (IC50^8h), 8-h exposure 0–8 hr, 3D7-A10, survival at 60 h.
[9] abbreviates: read-out: Late rings Mean IC50 (IC50^8h), 8-h exposure 8–16 hr, 3D7-A10, survival at 60 h.

Regarding `CC(C)(C)c1ccc2c(c1)CN(Cc1ccc(Cl)cc1)CO2` [MMV000442], the IC50 (as a rule, the point on the concentration scale where inhibition reaches its midpoint) in data set [1] was 37.2 nM; in data set [2] (read-out: Early rings IC50 (IC50^8h), 8-h exposure 0–8 hr, bound given in μM), over 8 µM; in data set [2] (setting [5]), 0.176 µM; in data set [2] (read-out: Late rings IC50 (IC50^8h), 8-h exposure 8–16 hr, bound given in μM) it was over 8 µM; in data set [2] (setting [6]), 0.197 µM; in data set [2] (setting [7]) it was 0.503 µM. In data set [2], the “Ratio lowest IC50 8hr/IC50 72hr” value came out at 4.7. Besides, in data set [2] (8-h exposures, survival curves), the “killing in stage specificity assay” value is “incomplete killing at all asexual blood stages”. For the same compound, the “Stage of peak activity (Figure 6)” value in data set [2] is on record as “trophozoites”. The “Peak Activity (Table S1)” value in data set [2] (stage(s) with the lowest IC50^8h) is given as “Trophs”. For the same compound, in data set [3], the “Ratio fil./std. (absorbance filtrate/standard)” value worked out at 0.74.
For Ferroquine [reference compound], the IC50 was 3.5 nM in data set [1]; 0.0049 µM in data set [2] (setting [8]); 0.0232 µM in data set [2] (setting [5]); 0.0109 µM in data set [2] (setting [9]); 0.0368 µM in data set [2] (setting [6]); 0.0493 µM in data set [2] (setting [7]). For the same compound, the “Ratio lowest IC50 8hr/IC50 72hr” value in data set [2] is listed as 1.4. Further, the “Stage of peak activity (Figure 6)” value in data set [2] is listed as “early rings; also recorded: ring stages”.
In the case of `CN(C)Cc1ccc(-c2cc3c(-c4ccc(CN(C)C)cc4)ccnc3[nH]2)cc1.O=C(O)C(F)(F)F` [MMV022224], the IC50 came to 199 nM in data set [1]; 0.838 µM in data set [2] (setting [8]); 0.542 µM in data set [2] (setting [5]); 0.845 µM in data set [2] (setting [9]); 0.752 µM in data set [2] (setting [6]); 2.49 µM in data set [2] (setting [7]). For the same compound, in data set [2], the “Ratio lowest IC50 8hr/IC50 72hr” value is 2.7. Besides, the “overall activity profile (stages on which active)” value in data set [2] (8-h exposures) is “activity exclusively in rings and trophozoites but not in schizonts”. Also, the “Stage of peak activity (Figure 6)” value in data set [2] was “rings and trophozoites”. In data set [4], the digestive vacuole morphology entry was “without displaying swollen vacuoles”. Also, in data set [4], the “most susceptible stage by cell morphology” value was “early and late trophozoite stages”.
`CC(C)(C)NCc1cc(Nc2ccnc3cc(Cl)ccc23)c2c(c1O)CCCC2` [Naphtoquine, Naphthoquine, reference compound]: the IC50 in data set [1] came to 3.2 nM; in data set [2] (setting [8]), 0.0042 µM; in data set [2] (setting [5]) it was 0.0195 µM; in data set [2] (setting [9]), 0.0081 µM; in data set [2] (setting [6]), 0.0292 µM; in data set [2] (setting [7]) it was 0.0428 µM. Also, the “Ratio lowest IC50 8hr/IC50 72hr” value in data set [2] worked out at 1.3. Besides, the “Stage of peak activity (Figure 6)” value in data set [2] was “early rings; also recorded: ring stages”.
